Source: publication PMC11992128, “Inhibition of Rho GEFs attenuates pulmonary fibrosis through suppressing myofibroblast activation and reprogramming profibrotic macrophages” (Cell Death & Disease, 2025)

What was measured:
[1] = target: T1, DH/PH domain of LARG (Leukemia-associated RhoGEF); ARHGEF12(765-1138aa) (Homo sapiens, UniProt Q9NZN5); test: CETSA, NIH/3T3 expressing the GST-tagged domain, Western blot; type: cell-based; settings: 75 μM GL-V9, 3 h
T1 construct: DH/PH domain; GST-ARHGEF12(765-1138aa) by lentivirus in NIH/3T3 for the cell tests
T1 sequence (Q9NZN5 765-1138): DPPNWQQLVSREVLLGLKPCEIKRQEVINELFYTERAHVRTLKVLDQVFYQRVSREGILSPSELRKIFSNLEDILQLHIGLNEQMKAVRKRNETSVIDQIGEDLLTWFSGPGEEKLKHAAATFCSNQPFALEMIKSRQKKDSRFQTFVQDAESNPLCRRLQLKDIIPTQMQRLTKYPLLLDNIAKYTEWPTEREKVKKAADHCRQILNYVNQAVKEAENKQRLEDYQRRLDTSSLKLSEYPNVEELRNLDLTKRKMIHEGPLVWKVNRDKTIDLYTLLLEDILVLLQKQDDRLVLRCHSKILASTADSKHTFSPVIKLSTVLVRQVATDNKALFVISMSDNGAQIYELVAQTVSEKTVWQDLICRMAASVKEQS

[2] = target: T1, DH/PH domain of LARG (Leukemia-associated RhoGEF); ARHGEF12(765-1138aa); test: surface plasmon resonance (Biacore S200, CM5 chip, immobilised protein); type: binding

SMILES: COc1c(OCCCCN2CCCC2)cc(O)c2c(=O)cc(-c3ccccc3)oc12 [GL-V9, 5-hydroxy-8-methoxy-2-phenyl-7-(4-(pyrrolidine-1-yl)butoxy) 4H-chromen-4-one]
- thermal stability [1]: GL-V9 significantly enhanced the thermal stability of the wild-type DH/PH domain
- Kd [2]: 11.8 µM
